Assays:
SH-SY5Y cells [1] = test: Toxicity of Aβ42 alone (LDH release, ATP levels, caspase-3/7 activation, cell viability); format: cell-based, human
Excerpt: To investigate the effect of 2AT and KLT on Aβ42 toxicity, we performed a series of cell-based toxicity experiments in which we examined four toxicity markers—LDH release, changes in ATP levels, caspase-3/7 activation, and cell viability—in SH-SY5Y cells exposed to Aβ42 in the absence or presence of 2AT and KLT. We first identified an Aβ42 concentration that elicits significant toxicity in the absence of 2AT and KLT by exposing SH-SY5Y cells to varying concentrations of Aβ42 and then performing the toxicity assays. The toxicity markers establish that Aβ42 elicits significant toxicity at 6 μM (SI Appendix, Fig. S8). […]
Detailed methods are provided in the Supporting Information. […] X-ray diffraction data for KLT and KLTI were collected on a Rigaku Micromax-007HF X-ray diffractometer with a rotating copper anode, and the X-ray crystallographic phases were determined using molecular replacement and SAD phasing. […] Live-cell fluorescence microscopy was performed on SH-SY5Y cells adhered to an Ibidi µ-Slide eight Well Chamber Slide. The cells were imaged using a Keyence BZ-X810 fluorescence microscope and analyzed using the Hybrid Cell Count application in the BZ-X810 Analyzer software. […]

SH-SY5Y cells [2] = test: Live-cell fluorescence microscopy of HL647-Aβ42 cellular interaction; format: cell-based, human; conditions: 1 μM HL647-Aβ42, absence of 2AT and KLT, 16 h
Procedure: Fig. 7. The effects of 2AT and KLT on Aβ42 toxicity and cellular interaction (A–D). (A) LDH release assay (B) CellTiter-Glo ATP assay. (C) ApoLive-Glo cell viability assay. (D) ApoLive-Glo caspase-3/7 activation assay. The cell-based assays in A–D were performed by exposing SH-SY5Y cells to 6 μM Aβ42 in the presence of a twofold dilution series of 2AT and KLT for 72 h. All data from the assays are shown as the mean of three technical replicates, with error bars representing the SD. (E–I) Live-cell fluorescence micrographs of SH-SY5Y cells after treatment with 1 μM HiLyte™ Fluor 647-Aβ42 (HL647-Aβ42) in the presence of 0 μM trimer (E) or 2 μM and 4 μM 2AT (F and G) or 2 μM and 4 μM KLT (H and I) for 16 h; (Scale bars, 20 μm.) Fluorescence quantification (FQ), as determined by (total fluorescence of HL647Aβ42)/(total number of cells) is indicated on each micrograph. Dead cells were excluded from the fluorescence quantification analysis and are marked with a white “x”. […]
For these experiments, we exposed SH-SY5Y cells to 1 μM solutions of N-terminally labeled HiLyte™ Fluor 647-Aβ42 (HL647-Aβ42) containing 0 μM, 2 μM, or 4 μM 2AT or KLT and then used live-cell fluorescence microscopy to visualize and quantify HL647-Aβ42 fluorescence on the cells. […]

Substance | concentration that elicits significant toxicity (SH-SY5Y cells [1]) [µM] | cellular localization / uptake of HL647-Aβ42 (SH-SY5Y cells [2])
Aβ42: full-length β-amyloid peptide Aβ42 | 6 | 
HL647-Aβ42: N-terminally labeled HiLyte Fluor 647-Aβ42 |  | accumulates as punctate features inside the cells

Reference: paper PMC10235986, “Probing differences among Aβ oligomers with two triangular trimers derived from Aβ” (Proceedings of the National Academy of Sciences of the …, 2023)
